biological target: T1, Arachidonate 5-lipoxygenase-activating protein (Homo sapiens, UniProt P20292); assay: Inhibition of FLAP in human whole blood assessed as inhibition of calcium ionophore A23187-induced LTB4 production preincubated for 15 mins by ELISA; conditions: not given
T1 sequence (P20292 whole entry): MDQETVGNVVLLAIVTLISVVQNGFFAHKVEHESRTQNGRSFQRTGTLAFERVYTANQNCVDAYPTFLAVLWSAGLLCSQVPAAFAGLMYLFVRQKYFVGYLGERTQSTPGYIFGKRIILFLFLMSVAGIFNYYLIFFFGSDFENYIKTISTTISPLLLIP

Row | IC50 [nM] | Structure (SMILES)
1 | 349 | COc1ccc(-c2ccc(Cn3c(CC(C)(C)C(=O)O)c(SC(C)(C)C)c4cc(OCc5ccccn5)ccc43)cc2)cn1
2 | 161 | COc1cnc(-c2ccc(Cn3c(CC(C)(C)C(=O)O)c(SC(C)(C)C)c4cc(OCc5ccc(C)cn5)ccc43)cc2)nc1

biological target: T1, Arachidonate 5-lipoxygenase-activating protein; assay: Inhibition of FLAP in human whole blood assessed as inhibition of calcium ionophore A23187-induced LTB4 production preincubated for 5 hrs by ELISA; conditions: not given

Row | IC50 [nM] | Structure (SMILES)
3 | 149 | COc1ccc(-c2ccc(Cn3c(CC(C)(C)C(=O)O)c(SC(C)(C)C)c4cc(OCc5ccccn5)ccc43)cc2)cn1
4 | 81 | COc1cnc(-c2ccc(Cn3c(CC(C)(C)C(=O)O)c(SC(C)(C)C)c4cc(OCc5ccc(C)cn5)ccc43)cc2)nc1

biological target: T1, Arachidonate 5-lipoxygenase-activating protein; assay: Inhibition of FLAP in human peripheral leukocytes assessed as inhibition of calcium ionophore A23187-induced LTB4 production after 10 mins by ELISA; type: cell-based; conditions: not given

Row | IC50 [nM] | Structure (SMILES)
5 | 0.5 | COc1ccc(-c2ccc(Cn3c(CC(C)(C)C(=O)O)c(SC(C)(C)C)c4cc(OCc5ccccn5)ccc43)cc2)cn1
6 | 0.6 | COc1cnc(-c2ccc(Cn3c(CC(C)(C)C(=O)O)c(SC(C)(C)C)c4cc(OCc5ccc(C)cn5)ccc43)cc2)nc1

biological target: Prostaglandin G/H synthase 1 (Homo sapiens, UniProt P23219); assay: Inhibition of COX1-mediated TXB2 production in human whole blood after 30 mins by competitive enzyme immunoassay; conditions: not given
Sequence (P23219 whole entry): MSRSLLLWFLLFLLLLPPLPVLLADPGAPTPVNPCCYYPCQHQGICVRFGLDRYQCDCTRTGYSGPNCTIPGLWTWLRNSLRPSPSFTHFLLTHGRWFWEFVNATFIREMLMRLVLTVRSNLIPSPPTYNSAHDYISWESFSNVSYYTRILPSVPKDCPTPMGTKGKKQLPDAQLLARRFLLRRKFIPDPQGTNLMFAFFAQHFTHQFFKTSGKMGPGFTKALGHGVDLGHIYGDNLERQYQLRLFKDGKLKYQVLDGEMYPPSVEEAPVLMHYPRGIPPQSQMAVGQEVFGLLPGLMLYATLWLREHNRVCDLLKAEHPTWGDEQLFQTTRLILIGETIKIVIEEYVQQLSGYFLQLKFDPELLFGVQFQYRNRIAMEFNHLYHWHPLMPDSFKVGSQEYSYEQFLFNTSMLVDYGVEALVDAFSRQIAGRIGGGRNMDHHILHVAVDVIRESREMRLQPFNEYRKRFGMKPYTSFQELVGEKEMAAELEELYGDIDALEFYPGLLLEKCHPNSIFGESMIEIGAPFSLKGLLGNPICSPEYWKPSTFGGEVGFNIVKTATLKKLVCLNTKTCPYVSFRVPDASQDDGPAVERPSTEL

Row | IC50 [nM] | Structure (SMILES)
7 | 25000 | COc1cnc(-c2ccc(Cn3c(CC(C)(C)C(=O)O)c(SC(C)(C)C)c4cc(OCc5ccc(C)cn5)ccc43)cc2)nc1

biological target: T1, Arachidonate 5-lipoxygenase-activating protein; assay: Inhibition of FLAP in human peripheral leukocytes assessed as inhibition of calcium ionophore A23187-induced LTB4 production after 5 mins by ELISA in absence of human serum albumin; type: cell-based; conditions: not given

Row | IC50 [nM] | Structure (SMILES)
8 | 1.2 | COc1ccc(-c2ccc(Cn3c(CC(C)(C)C(=O)O)c(SC(C)(C)C)c4cc(OCc5ccccn5)ccc43)cc2)cn1

biological target: T1, Arachidonate 5-lipoxygenase-activating protein; assay: Inhibition of FLAP in human peripheral leukocytes assessed as inhibition of calcium ionophore A23187-induced LTB4 production after 1 hr by ELISA in absence of human serum albumin; type: cell-based; conditions: not given

Row | IC50 [nM] | Structure (SMILES)
9 | 1.1 | COc1ccc(-c2ccc(Cn3c(CC(C)(C)C(=O)O)c(SC(C)(C)C)c4cc(OCc5ccccn5)ccc43)cc2)cn1

biological target: T1, Arachidonate 5-lipoxygenase-activating protein; assay: Inhibition of FLAP in human peripheral leukocytes assessed as inhibition of calcium ionophore A23187-induced LTB4 production after 10 mins by ELISA in presence of 0.5% human serum albumin; type: cell-based; conditions: not given

Row | IC50 [nM] | Structure (SMILES)
10 | 10 | COc1ccc(-c2ccc(Cn3c(CC(C)(C)C(=O)O)c(SC(C)(C)C)c4cc(OCc5ccccn5)ccc43)cc2)cn1

biological target: T1, Arachidonate 5-lipoxygenase-activating protein; assay: Inhibition of FLAP in human peripheral leukocytes assessed as inhibition of calcium ionophore A23187-induced LTB4 production after 3 hr by ELISA in presence of 0.5% human serum albumin; type: cell-based; conditions: not given

Row | IC50 [nM] | Structure (SMILES)
11 | 14 | COc1ccc(-c2ccc(Cn3c(CC(C)(C)C(=O)O)c(SC(C)(C)C)c4cc(OCc5ccccn5)ccc43)cc2)cn1

biological target: Cytochrome P450 3A4 (Homo sapiens, UniProt P08684); assay: Inhibition of human CYP3A4; type: ADME; conditions: not given
Sequence (P08684 whole entry): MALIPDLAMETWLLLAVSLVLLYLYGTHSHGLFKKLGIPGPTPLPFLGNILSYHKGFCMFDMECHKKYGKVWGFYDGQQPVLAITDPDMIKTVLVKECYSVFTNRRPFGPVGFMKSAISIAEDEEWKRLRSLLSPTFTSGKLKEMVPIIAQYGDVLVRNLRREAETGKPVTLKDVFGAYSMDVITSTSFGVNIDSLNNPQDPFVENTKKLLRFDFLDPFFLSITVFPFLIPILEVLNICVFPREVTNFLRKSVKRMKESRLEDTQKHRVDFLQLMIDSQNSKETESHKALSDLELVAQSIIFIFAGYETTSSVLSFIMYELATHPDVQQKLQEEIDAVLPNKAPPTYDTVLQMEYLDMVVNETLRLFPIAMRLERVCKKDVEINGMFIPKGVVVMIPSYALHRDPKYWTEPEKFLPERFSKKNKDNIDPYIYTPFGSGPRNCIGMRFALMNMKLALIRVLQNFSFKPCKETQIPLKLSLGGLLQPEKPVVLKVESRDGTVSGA

Row | IC50 [nM] | Structure (SMILES)
12 | 8800 | COc1cnc(-c2ccc(Cn3c(CC(C)(C)C(=O)O)c(SC(C)(C)C)c4cc(OCc5ccc(C)cn5)ccc43)cc2)nc1

biological target: Cytochrome P450 2C9 (Homo sapiens, UniProt P11712); assay: Inhibition of human CYP2C9; type: ADME; conditions: not given
Sequence (P11712 whole entry): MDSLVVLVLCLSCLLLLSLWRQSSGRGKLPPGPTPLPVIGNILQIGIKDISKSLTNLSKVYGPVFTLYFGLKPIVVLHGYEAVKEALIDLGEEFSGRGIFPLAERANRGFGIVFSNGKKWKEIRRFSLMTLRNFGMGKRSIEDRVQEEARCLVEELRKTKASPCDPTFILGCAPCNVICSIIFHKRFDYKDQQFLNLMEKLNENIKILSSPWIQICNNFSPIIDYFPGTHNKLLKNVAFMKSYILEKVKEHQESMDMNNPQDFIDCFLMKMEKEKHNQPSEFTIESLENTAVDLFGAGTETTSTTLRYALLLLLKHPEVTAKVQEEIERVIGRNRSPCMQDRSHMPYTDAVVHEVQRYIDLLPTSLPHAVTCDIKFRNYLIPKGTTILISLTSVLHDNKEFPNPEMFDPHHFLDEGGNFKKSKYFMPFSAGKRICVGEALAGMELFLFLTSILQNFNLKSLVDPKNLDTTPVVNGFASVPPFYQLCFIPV

Row | IC50 [nM] | Structure (SMILES)
13 | 4500 | COc1cnc(-c2ccc(Cn3c(CC(C)(C)C(=O)O)c(SC(C)(C)C)c4cc(OCc5ccc(C)cn5)ccc43)cc2)nc1

biological target: Cytochrome P450 2D6 (Homo sapiens, UniProt P10635); assay: Inhibition of human CYP2D6; type: ADME; conditions: not given
Sequence (P10635 whole entry): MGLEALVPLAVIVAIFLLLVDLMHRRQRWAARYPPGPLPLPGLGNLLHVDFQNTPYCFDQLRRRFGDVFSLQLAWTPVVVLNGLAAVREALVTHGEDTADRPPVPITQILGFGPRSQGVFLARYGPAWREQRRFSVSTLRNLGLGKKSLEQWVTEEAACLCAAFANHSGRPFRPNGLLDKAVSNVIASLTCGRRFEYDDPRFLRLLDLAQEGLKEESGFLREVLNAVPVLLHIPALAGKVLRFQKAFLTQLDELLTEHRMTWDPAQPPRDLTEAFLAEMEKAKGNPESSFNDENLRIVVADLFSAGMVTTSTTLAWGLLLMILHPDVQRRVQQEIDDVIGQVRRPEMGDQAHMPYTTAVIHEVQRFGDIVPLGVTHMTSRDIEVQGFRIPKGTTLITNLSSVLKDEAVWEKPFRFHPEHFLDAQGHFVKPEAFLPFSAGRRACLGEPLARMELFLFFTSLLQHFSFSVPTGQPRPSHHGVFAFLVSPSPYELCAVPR

Row | IC50 [nM] | Structure (SMILES)
14 | > 50000 | COc1cnc(-c2ccc(Cn3c(CC(C)(C)C(=O)O)c(SC(C)(C)C)c4cc(OCc5ccc(C)cn5)ccc43)cc2)nc1

system: not listed separately; assay: Terminal half life in Sprague-Dawley rat at 2 mg/kg, iv; type: ADME, organism-based; parameters: dose 2 mg/kg, route intravenous; conditions: in vivo, read-out: beta t1/2 (converted)

Row | half-life [h] | Structure (SMILES)
15 | 1 | Cc1ccc(COc2ccc3c(c2)c(SC(C)(C)C)c(CC(C)(C)C(=O)[O-])n3Cc2ccc(-c3ccc(C)cn3)cc2)nc1.[Na+]
16 | 1.7 | COc1cnc(-c2ccc(Cn3c(CC(C)(C)C(=O)[O-])c(SC(C)(C)C)c4cc(OCc5ccc(C)cn5)ccc43)cc2)nc1.[Na+]
17 | 1.9 | Cc1ccc(COc2ccc3c(c2)c(SC(C)(C)C)c(CC(C)(C)C(=O)[O-])n3Cc2ccc(-c3ccc(F)cn3)cc2)nc1.[Na+]
18 | 2 | CCOc1ccc(-c2ccc(Cn3c(CC(C)(C)C(=O)[O-])c(SC(C)(C)C)c4cc(OCc5ccc(C)cn5)ccc43)cc2)cn1.[Na+] [FIBOFLAPON SODIUM]

system: not listed separately; assay: Clearance in Sprague-Dawley rat at 2 mg/kg, iv; type: ADME, organism-based; parameters: dose 2 mg/kg, route intravenous; conditions: in vivo

Row | clearance [mL/min/kg] | Structure (SMILES)
19 | 3 | Cc1ccc(COc2ccc3c(c2)c(SC(C)(C)C)c(CC(C)(C)C(=O)[O-])n3Cc2ccc(-c3ccc(C)cn3)cc2)nc1.[Na+]
20 | 3.1 | COc1cnc(-c2ccc(Cn3c(CC(C)(C)C(=O)[O-])c(SC(C)(C)C)c4cc(OCc5ccc(C)cn5)ccc43)cc2)nc1.[Na+]
21 | 4 | Cc1ccc(COc2ccc3c(c2)c(SC(C)(C)C)c(CC(C)(C)C(=O)[O-])n3Cc2ccc(-c3ccc(F)cn3)cc2)nc1.[Na+]
22 | 5.2 | CCOc1ccc(-c2ccc(Cn3c(CC(C)(C)C(=O)[O-])c(SC(C)(C)C)c4cc(OCc5ccc(C)cn5)ccc43)cc2)cn1.[Na+] [FIBOFLAPON SODIUM]

system: not listed separately; assay: Volume of distribution at steady state in Sprague-Dawley rat at 2 mg/kg, iv; type: ADME, organism-based; parameters: dose 2 mg/kg, route intravenous; conditions: in vivo, read-out: Vdss

Row | Vd [L/kg] | Structure (SMILES)
23 | 0.16 | Cc1ccc(COc2ccc3c(c2)c(SC(C)(C)C)c(CC(C)(C)C(=O)[O-])n3Cc2ccc(-c3ccc(C)cn3)cc2)nc1.[Na+]
24 | 0.18 | COc1cnc(-c2ccc(Cn3c(CC(C)(C)C(=O)[O-])c(SC(C)(C)C)c4cc(OCc5ccc(C)cn5)ccc43)cc2)nc1.[Na+]
25 | 0.38 | Cc1ccc(COc2ccc3c(c2)c(SC(C)(C)C)c(CC(C)(C)C(=O)[O-])n3Cc2ccc(-c3ccc(F)cn3)cc2)nc1.[Na+]
26 | 0.7 | CCOc1ccc(-c2ccc(Cn3c(CC(C)(C)C(=O)[O-])c(SC(C)(C)C)c4cc(OCc5ccc(C)cn5)ccc43)cc2)cn1.[Na+] [FIBOFLAPON SODIUM]

system: not listed separately; assay: Oral bioavailability in Sprague-Dawley rat at 10 mg/kg; type: ADME, organism-based; conditions: in vivo

Row | bioavailability [%] | Structure (SMILES)
27 | 40 | Cc1ccc(COc2ccc3c(c2)c(SC(C)(C)C)c(CC(C)(C)C(=O)[O-])n3Cc2ccc(-c3ccc(C)cn3)cc2)nc1.[Na+]
28 | 100 | COc1cnc(-c2ccc(Cn3c(CC(C)(C)C(=O)[O-])c(SC(C)(C)C)c4cc(OCc5ccc(C)cn5)ccc43)cc2)nc1.[Na+]
29 | 100 | Cc1ccc(COc2ccc3c(c2)c(SC(C)(C)C)c(CC(C)(C)C(=O)[O-])n3Cc2ccc(-c3ccc(F)cn3)cc2)nc1.[Na+]
30 | 76 | CCOc1ccc(-c2ccc(Cn3c(CC(C)(C)C(=O)[O-])c(SC(C)(C)C)c4cc(OCc5ccc(C)cn5)ccc43)cc2)cn1.[Na+] [FIBOFLAPON SODIUM]

system: not listed separately; assay: AUC in Sprague-Dawley rat at 10 mg/kg, po; type: ADME, organism-based; parameters: dose 10 mg/kg, route oral; conditions: plasma

Row | AUC [ng·h/mL] | Structure (SMILES)
31 | 26000 | Cc1ccc(COc2ccc3c(c2)c(SC(C)(C)C)c(CC(C)(C)C(=O)[O-])n3Cc2ccc(-c3ccc(C)cn3)cc2)nc1.[Na+]
32 | 63000 | COc1cnc(-c2ccc(Cn3c(CC(C)(C)C(=O)[O-])c(SC(C)(C)C)c4cc(OCc5ccc(C)cn5)ccc43)cc2)nc1.[Na+]
33 | 77000 | Cc1ccc(COc2ccc3c(c2)c(SC(C)(C)C)c(CC(C)(C)C(=O)[O-])n3Cc2ccc(-c3ccc(F)cn3)cc2)nc1.[Na+]
34 | 26000 | CCOc1ccc(-c2ccc(Cn3c(CC(C)(C)C(=O)[O-])c(SC(C)(C)C)c4cc(OCc5ccc(C)cn5)ccc43)cc2)cn1.[Na+] [FIBOFLAPON SODIUM]

system: not listed separately; assay: Cmax in Sprague-Dawley rat at 10 mg/kg, po; type: ADME, organism-based; parameters: dose 10 mg/kg, route oral; conditions: in vivo

Row | Cmax [µM] | Structure (SMILES)
35 | 14.6 | Cc1ccc(COc2ccc3c(c2)c(SC(C)(C)C)c(CC(C)(C)C(=O)[O-])n3Cc2ccc(-c3ccc(C)cn3)cc2)nc1.[Na+]
36 | 30.6 | COc1cnc(-c2ccc(Cn3c(CC(C)(C)C(=O)[O-])c(SC(C)(C)C)c4cc(OCc5ccc(C)cn5)ccc43)cc2)nc1.[Na+]
37 | 23.3 | Cc1ccc(COc2ccc3c(c2)c(SC(C)(C)C)c(CC(C)(C)C(=O)[O-])n3Cc2ccc(-c3ccc(F)cn3)cc2)nc1.[Na+]
38 | 12.2 | CCOc1ccc(-c2ccc(Cn3c(CC(C)(C)C(=O)[O-])c(SC(C)(C)C)c4cc(OCc5ccc(C)cn5)ccc43)cc2)cn1.[Na+] [FIBOFLAPON SODIUM]

From ChEMBL document CHEMBL1921749, “5-Lipoxygenase-activating protein (FLAP) inhibitors. Part 4: development of 3-[3-tert-butylsulfanyl-1-[4-(6-ethoxypyridin-3-yl)benzyl]-5-(5-methylpyridin-2-ylmethoxy)-1H-indol-2-yl]-2,2-dimethylpropionic acid (AM803), a potent, oral, once daily FLAP inhibitor” (J Med Chem, 2011)
